Laboratory results as given in ChEMBL document CHEMBL4819081 (Eur J Med Chem, 2021).

Legend:
[1] = test system: MDA-MB-231; experiment: Antiproliferative activity against human MDA-MB-231 cells assessed as reduction in cell viability after 72 hrs by MTT assay; format: functional, cell-based; conditions: MDA-MB-231, 72 h
[2] = test system: NCI-H1299; experiment: Antiproliferative activity against human NCI-H1299 cells assessed as reduction in cell viability after 72 hrs by MTT assay; format: functional, cell-based; conditions: NCI-H1299, 72 h
[3] = test system: MCF7; experiment: Antiproliferative activity against human MCF7 cells assessed as reduction in cell viability after 72 hrs by MTT assay; format: functional, cell-based; conditions: MCF7, 72 h
[4] = test system: MDA-MB-453; experiment: Antiproliferative activity against human MDA-MB-453 cells assessed as reduction in cell viability after 72 hrs by MTT assay; format: functional, cell-based; conditions: MDA-MB-453, 72 h
[5] = biological target: T1, CDK6/cyclin D3 (Homo sapiens) (UniProt P30281+Q00534); experiment: Inhibition of CDK6/Cyclin D3 (unknown origin) at 20 nM using ATP by mobility shift assay; format: protein-complex assay
[6] = biological target: T2, Cyclin-dependent kinase 4/cyclin D1 (Homo sapiens) (UniProt P11802+P24385); experiment: Inhibition of CDK4/Cyclin D1 (unknown origin) at 200 nM using ATP by mobility shift assay; format: protein-complex assay
[7] = biological target: T2, Cyclin-dependent kinase 4/cyclin D1 (Homo sapiens); experiment: Inhibition of CDK4/Cyclin D1 (unknown origin) at 20 nM using ATP by mobility shift assay; format: protein-complex assay
[8] = biological target: T1, CDK6/cyclin D3 (Homo sapiens); experiment: Inhibition of CDK6/Cyclin D3 (unknown origin) at 200 nM using ATP by mobility shift assay; format: protein-complex assay

IC50 [1] [µM]	IC50 [2] [µM]	IC50 [3] [µM]	IC50 [4] [µM]	inhibition [5] [%]	inhibition [6] [%]	inhibition [7] [%]	inhibition [8] [%]	Compound
> 20	> 20	16.6	7.01	89.2	92	52.1	100	CC(=O)c1c(C)c2cnc(Nc3ccc(N4CCN(CCC(=O)NCCCCNC(=O)CCl)CC4)cn3)nc2n(C2CCCC2)c1=O
> 20	> 20	> 20	> 20					CC(=O)c1c(C)c2cnc(Nc3ccc(N4CCN(CCC(=O)NCCNC(=O)CCl)CC4)cn3)nc2n(C2CCCC2)c1=O
9.89	8.88	14.5	5.11	71.3	90.9	45.7	98.2	CC(=O)c1c(C)c2cnc(Nc3ccc(N4CCN(CC(=O)NCCCCCCNC(=O)CCl)CC4)cn3)nc2n(C2CCCC2)c1=O
> 20	> 20	> 20	> 20					C=CC(=O)NCCCCCCNC(=O)CCN1CCN(c2ccc(Nc3ncc4c(C)c(C(C)=O)c(=O)n(C5CCCC5)c4n3)nc2)CC1
14.8	> 20	> 20	> 20					C=CC(=O)NCCCCCCNC(=O)CN1CCN(c2ccc(Nc3ncc4c(C)c(C(C)=O)c(=O)n(C5CCCC5)c4n3)nc2)CC1
> 20	16.1	4.25	3.55	76.7	92.7	61.4	102	CC(=O)c1c(C)c2cnc(Nc3ccc(N4CCN(CC(=O)NCCOCCNC(=O)CCl)CC4)cn3)nc2n(C2CCCC2)c1=O
> 20	> 20	> 20	> 20					CC(=O)c1c(C)c2cnc(Nc3ccc(N4CCN(CCC(=O)NCCCCCCNC(=O)CCl)CC4)cn3)nc2n(C2CCCC2)c1=O
> 20	> 20	> 20	> 20					CC(=O)c1c(C)c2cnc(Nc3ccc(N4CCN(CCC(=O)NCCCCCCNCC#N)CC4)cn3)nc2n(C2CCCC2)c1=O
> 20	> 20	> 20	> 20					C=CC(=O)NCCCCNC(=O)CCN1CCN(c2ccc(Nc3ncc4c(C)c(C(C)=O)c(=O)n(C5CCCC5)c4n3)nc2)CC1
8.92	> 20	15.8	9.2					CC(=O)c1c(C)c2cnc(Nc3ccc(N4CCN(CCC(=O)NCCOCCOCCNC(=O)CCl)CC4)cn3)nc2n(C2CCCC2)c1=O
12.5	8.42	> 20	12.8					CC(=O)c1c(C)c2cnc(Nc3ccc(N4CCN(CCC(=O)NCCCCNCC#N)CC4)cn3)nc2n(C2CCCC2)c1=O
> 20	> 20	> 20	> 20					CC(=O)c1c(C)c2cnc(Nc3ccc(N4CCN(CC(=O)NCCCCCCNCC#N)CC4)cn3)nc2n(C2CCCC2)c1=O
18.3	> 20	> 20	> 20					C=CC(=O)NCCCNC(=O)CCN1CCN(c2ccc(Nc3ncc4c(C)c(C(C)=O)c(=O)n(C5CCCC5)c4n3)nc2)CC1
> 20	> 20	> 20	> 20					C=CC(=O)NCCNC(=O)CCN1CCN(c2ccc(Nc3ncc4c(C)c(C(C)=O)c(=O)n(C5CCCC5)c4n3)nc2)CC1

More lines, now with the values behind:

Compound	IC50 [1] [µM]	IC50 [2] [µM]	IC50 [3] [µM]	IC50 [4] [µM]	inhibition [5] [%]	inhibition [6] [%]	inhibition [7] [%]	inhibition [8] [%]
C=CC(=O)NCCOCCNC(=O)CN1CCN(c2ccc(Nc3ncc4c(C)c(C(C)=O)c(=O)n(C5CCCC5)c4n3)nc2)CC1	> 20	> 20	> 20	15.4				
C=CC(=O)NCCOCCOCCNC(=O)CN1CCN(c2ccc(Nc3ncc4c(C)c(C(C)=O)c(=O)n(C5CCCC5)c4n3)nc2)CC1	> 20	> 20	> 20	10.2				
C=CC(=O)NCCNC(=O)CN1CCN(c2ccc(Nc3ncc4c(C)c(C(C)=O)c(=O)n(C5CCCC5)c4n3)nc2)CC1	18.7	> 20	> 20	> 20				
CC(=O)c1c(C)c2cnc(Nc3ccc(N4CCN(CCC(=O)NCCNCC#N)CC4)cn3)nc2n(C2CCCC2)c1=O	> 20	> 20	> 20	> 20				
C=CC(=O)NCCOCCNC(=O)CCN1CCN(c2ccc(Nc3ncc4c(C)c(C(C)=O)c(=O)n(C5CCCC5)c4n3)nc2)CC1	> 20	> 20	> 20	5.25				
CC(=O)c1c(C)c2cnc(Nc3ccc(N4CCN(CC(=O)NCCOCCOCCNC(=O)CCl)CC4)cn3)nc2n(C2CCCC2)c1=O	> 20	> 20	> 20	> 20				
CC(=O)c1c(C)c2cnc(Nc3ccc(N4CCN(CCC(=O)NCCCNCC#N)CC4)cn3)nc2n(C2CCCC2)c1=O	> 20	> 20	> 20	> 20				
CC(=O)c1c(C)c2cnc(Nc3ccc(N4CCN(CCC(=O)NCCOCCNCC#N)CC4)cn3)nc2n(C2CCCC2)c1=O	> 20	> 20	> 20	> 20				
CC(=O)c1c(C)c2cnc(Nc3ccc(N4CCN(CC#N)CC4)cn3)nc2n(C2CCCC2)c1=O	17.9	> 20	> 20	> 20				
CC(=O)c1c(C)c2cnc(Nc3ccc(N4CCN(CC(=O)NCCOCCNCC#N)CC4)cn3)nc2n(C2CCCC2)c1=O	> 20	> 20	> 20	> 20				
CC(=O)c1c(C)c2cnc(Nc3ccc(N4CCN(CCC(=O)NCCOCCOCCNCC#N)CC4)cn3)nc2n(C2CCCC2)c1=O	> 20	> 20	> 20	> 20				
CC(=O)c1c(C)c2cnc(Nc3ccc(N4CCN(CC(=O)NCCCCNCC#N)CC4)cn3)nc2n(C2CCCC2)c1=O	> 20	> 20	> 20	> 20				
CC(=O)c1c(C)c2cnc(Nc3ccc(N4CCN(CC(=O)NCCOCCOCCNCC#N)CC4)cn3)nc2n(C2CCCC2)c1=O	> 20	> 20	> 20	> 20				
C=CC(=O)NCCCNC(=O)CN1CCN(c2ccc(Nc3ncc4c(C)c(C(C)=O)c(=O)n(C5CCCC5)c4n3)nc2)CC1	18	> 20	> 20	> 20				
CC(=O)c1c(C)c2cnc(Nc3ccc(N4CCN(CC(=O)NCCCNCC#N)CC4)cn3)nc2n(C2CCCC2)c1=O	> 20	19.2	> 20	15.5				
CC(=O)c1c(C)c2cnc(Nc3ccc(N4CCN(CC(=O)NCCNCC#N)CC4)cn3)nc2n(C2CCCC2)c1=O	> 20	> 20	> 20	9.89				
C=CC(=O)NCCOCCOCCNC(=O)CCN1CCN(c2ccc(Nc3ncc4c(C)c(C(C)=O)c(=O)n(C5CCCC5)c4n3)nc2)CC1	> 20	> 20	> 20	8.19				
C=CC(=O)NCCCCNC(=O)CN1CCN(c2ccc(Nc3ncc4c(C)c(C(C)=O)c(=O)n(C5CCCC5)c4n3)nc2)CC1	> 20	> 20	> 20	> 20				
C=CC(=O)N1CCN(c2ccc(Nc3ncc4c(C)c(C(C)=O)c(=O)n(C5CCCC5)c4n3)nc2)CC1	> 20	8.5	> 20	6.96				
